Test system: HT-29 human carcinoma cells
Experiment: cells
Conditions: for Cloning Efficiency (% of control): 72 hours
Protocol: HT-29 human carcinoma cells (ATCC No. HTB-38) were maintained in RPMI 1640 with 10%v/v fetal bovine serum (GIBCO) in a humidified, 5% CO2 atmosphere at 37° C. Cells were plated in 24 well plates (150 cells per well) in RPMI 1640 medium with 10% v/v dialyzed fetal bovine serum. […] The various agents were diluted in phosphate-buffered saline (PBS), and control wells received vehicle alone. After 72 hours, drug containing medium was removed and replaced with RPMI 1640 with 10%v/v fetal bovine serum. Cell colonies were allowed to grow for an additional 7-10 days, at which point they were stained and counted. […] Data are means of at least 3 determinations.

[1] = 5-FU 0, IFN 500 u/ml, 5-ETH or 5-PRO 150 μM
[2] = 5-FU 0.05 μM, IFN 500 u/ml, 5-ETH or 5-PRO 150 μM
[3] = 5-FU 0.10 μM, IFN 500 u/ml, 5-ETH or 5-PRO 150 μM
[4] = 5-FU 0.25 μM, alone (CONT) or with IFN 500 u/ml, 5-ETH or 5-PRO 150 μM
[5] = 5-FU 0.50 μM, alone (CONT) or with IFN 500 u/ml, 5-ETH or 5-PRO 150 μM
[6] = 5-FU 1.0 μM, alone (CONT) or with IFN 500 u/ml, 5-ETH or 5-PRO 150 μM
[7] = 5-FU 1.5 μM, alone (CONT) or with IFN 500 u/ml, 5-ETH or 5-PRO 150 μM

| SMILES | IC50 (Homo sapiens, HT-29, 72 h, read-out: 5-FU IC50, with 5-propynyloxy-2'-deoxyuridine (150 μM), 3 days of drug treatment) [nM] | inhibition at 2 µM (Homo sapiens, HT-29, 72 h, read-out: reduction in colonies) [%] | increased the cytotoxicity of 5-fluorouracil [times] | Cloning Efficiency (% of control) [1] [%] | Cloning Efficiency (% of control) [2] [%] | Cloning Efficiency (% of control) [3] [%] | Cloning Efficiency (% of control) [4] [%] | Cloning Efficiency (% of control) [5] [%] | Cloning Efficiency (% of control) [6] [%] | Cloning Efficiency (% of control) [7] [%] | Cloning Efficiency (% of control) (5-FU 2.0 μM, alone (CONT) or with IFN 500 u/ml, 5-PRO 150 μM) [%] | Cloning Efficiency (% of control) (5-FU 3.0 μM, alone (CONT) or with IFN 500 u/ml, 5-PRO 150 μM) [%] |
| --- | --- | --- | --- | --- | --- | --- | --- | --- | --- | --- | --- | --- |
| O=c1[nH]cc(F)c(=O)[nH]1 [5-FU, 5-fluorouracil] | 260 | 50 | – | – | – | – | – | – | – | – | – | – |
| CCOc1cn([C@H]2C[C@H](O)[C@@H](CO)O2)c(=O)[nH]c1=O [5-ethoxy-2'-deoxyuridine] | – | – | 5.7 | 89 | 81 | 80 | 60 | 38 | 13 | 4 | – | – |
| C#CCOc1cn([C@H]2C[C@H](O)[C@@H](CO)O2)c(=O)[nH]c1=O [5-propynyloxy-2'-deoxyuridine, 5-(2-propynyloxy)-2'-deoxyuridine] | – | – | 7.7 | 105 | 100 | 81 | 51 | 26 | 9 | 4 | 2 | 0 |
